Source: patent US8293909B2, “Compounds for the treatment of hepatitis C” (Bristol-Myers Squibb Company, priority 2008, dated 2012)

Columns and labels:
HCV replicon cells = assay: HCV replicon assay (FRET or luciferase readout); type: cell-based; details: Hepatitis C virus
Procedure, shortened: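 Replicon cells + titrated cpds, 37 °C CO2. Alamar blue for cytotoxicity, PBS rinse, then lysis reagent w/ 20 μM FRET peptide (EDANS/DABCYL), 150 mM NaCl; kinetic read ex340/em490, 20 cycles. Alt: Dual-Glo luciferase. EC50 = 50% drop in FRET/luciferase signal after background subtraction.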

[1] = target: T1, HCV NS5B RdRp genotype 1b (Hepatitis C virus genotype 1b, UniProt Q9WMX2); assay: HCV NS5B RdRp enzyme assay (standard / modified); type: biochemical; details: HCV NS5B genotype 1b
T1 construct: The protein was expressed with an 18 amino acid C-terminal truncation to enhance the solubility; made in house; host or cells: E. coli BL21(DE3), pET21a vector
Procedure, shortened: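 Genotype 1b NS5B with an 18-aa C-terminal truncation, expressed in E. coli, was tested by SPA incorporation of 3H-UTP (0.29 μM) on polyA/biotin-oligo-dT12. Standard assay: 28 nM enzyme, 6 nM template, 180 nM primer, 60 min at 30 °C, pH 7.5, 2% DMSO. Modified assay: 14 nM enzyme added to compound first, 0.2 nM template, 20 nM bead-precaptured primer, 4 h at 30 °C. IC50 used seven inhibitor concentrations.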

T1 sequence (Q9WMX2 2420-2992): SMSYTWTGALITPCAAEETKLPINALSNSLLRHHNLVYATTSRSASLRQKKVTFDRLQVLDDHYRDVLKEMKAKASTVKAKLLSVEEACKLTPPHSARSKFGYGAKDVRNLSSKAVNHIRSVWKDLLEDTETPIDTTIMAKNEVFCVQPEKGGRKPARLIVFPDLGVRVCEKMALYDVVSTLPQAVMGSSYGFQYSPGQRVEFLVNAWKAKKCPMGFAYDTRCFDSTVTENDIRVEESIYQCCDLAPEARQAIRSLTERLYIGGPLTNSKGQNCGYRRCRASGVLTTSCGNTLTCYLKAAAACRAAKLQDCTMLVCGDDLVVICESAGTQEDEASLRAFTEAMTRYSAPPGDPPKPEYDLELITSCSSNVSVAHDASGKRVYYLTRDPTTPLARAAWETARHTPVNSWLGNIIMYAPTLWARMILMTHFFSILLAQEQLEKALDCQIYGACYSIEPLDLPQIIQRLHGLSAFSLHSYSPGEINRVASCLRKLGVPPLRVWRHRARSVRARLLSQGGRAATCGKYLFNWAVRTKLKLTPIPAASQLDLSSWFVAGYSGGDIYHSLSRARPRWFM

## CNC(=O)c1c(-c2ccc(F)cc2)sc2ccc(-c3cccc(C(=O)NC4(c5ccccc5)CCC4)c3)cc12
HCV replicon cells; Table 1
  EC50: 0.002 to 0.25 µM
[1]; Table 1
  IC50: 0.002 to 0.25 µM

## CNC(=O)c1c(-c2ccc(F)cc2)sc2ccc(-c3cccc(C(=O)NC(C)(C)c4ccccc4)c3)cc12
HCV replicon cells; Table 1
  EC50: 0.25 to 1 µM
[1]; Table 1
  IC50: 0.002 to 0.25 µM

## CNC(=O)c1c(-c2ccc(F)cc2)sc2ccc(-c3cccc(C(=O)NC4(c5ccccc5)CC4)c3)cc12
HCV replicon cells; Table 1
  EC50: 1 to 10 µM
[1]; Table 1
  IC50: 0.25 to 1 µM

## CNC(=O)c1c(-c2ccc(F)cc2)nn2cc(N(CCO)S(C)(=O)=O)c(OC)cc12 [drawing 50]
HCV replicon cells; Table 1
  EC50: 1 to 10 µM
[1]; Table 1
  IC50: 1 to 10 µM

## CNC(=O)c1c(-c2ccc(F)cc2)nc2ccc(-c3cccc(C(=O)NC(C)(C)C)c3)cn12 [drawing 77]
HCV replicon cells; Table 1
  EC50: 0.25 to 1 µM
[1]; Table 1
  IC50: 0.25 to 1 µM

## CNC(=O)c1c(-c2ccc(F)cc2)[nH]c2ccc(-c3cccc(C(=O)NC(C)(C)c4ccccc4)c3)cc12 [drawing 80]
HCV replicon cells; Table 1
  EC50: 0.25 to 1 µM
[1]; Table 1
  IC50: 0.25 to 1 µM

## CNC(=O)c1c(-c2ccc(F)cc2)sc2ccc(-c3cccc(C(=O)NC(C)(C)C)c3)cc12 [drawing 85]
HCV replicon cells; Table 1
  EC50: 1 to 10 µM
[1]; Table 1
  IC50: > 4.17 µM

## CNC(=O)c1c(-c2ccc(F)cc2)nn2cc(N(CCO)S(C)(=O)=O)c(-c3cccc(C(=O)NC4(c5ccccn5)CC4)c3)cc12 [drawing 86]
HCV replicon cells; Table 1
  EC50: 1 to 10 µM
[1]; Table 1
  IC50: 0.002 to 0.25 µM

## CNC(=O)c1c(-c2ccc(F)cc2)nn2ccc(-c3cc(C(=O)NC4(c5ccccc5)CC4)ccc3C)cc12 [drawing 87]
HCV replicon cells; Table 1
  EC50: 0.002 to 0.25 µM
[1]; Table 1
  IC50: 0.002 to 0.25 µM

## CNC(=O)c1c(-c2ccc(F)cc2)nn2ccc(-c3cc(C(=O)NC4(c5ccccn5)CC4)ccc3C)cc12 [drawing 88]
HCV replicon cells; Table 1
  EC50: 0.002 to 0.25 µM
[1]; Table 1
  IC50: 0.002 to 0.25 µM

## CCN(c1cn2nc(-c3ccc(F)cc3)c(C(=O)NC)c2cc1-c1cccc(C(=O)NC(C)(C)c2ccccc2)c1)S(C)(=O)=O [drawing 92]
HCV replicon cells; Table 1
  EC50: 0.002 to 0.25 µM
[1]; Table 1
  IC50: 0.002 to 0.25 µM

## CNC(=O)c1c(-c2ccc(F)cc2)oc2ncc(-c3cc(C(=O)NC4(c5ccccn5)CC4)ccc3Cl)cc12 [drawing 113]
HCV replicon cells; Table 1
  EC50: 0.002 to 0.25 µM
[1]; Table 1
  IC50: 0.002 to 0.25 µM

## CNC(=O)c1c(-c2ccc(F)cc2)oc2ncc(-c3cc(C(=O)NC4(c5ccccn5)CC4)ccc3C)cc12 [drawing 116]
HCV replicon cells; Table 1
  EC50: 0.002 to 0.25 µM
[1]; Table 1
  IC50: 0.002 to 0.25 µM

## CNC(=O)c1c(-c2ccc(F)cc2)nn2ccc(-c3cc(C(=O)NC4(c5ccccc5)CC4)ccc3C)c(F)c12 [drawing 127]
HCV replicon cells; Table 1
  EC50: 0.002 to 0.25 µM
[1]; Table 1
  IC50: 0.002 to 0.25 µM

## CNC(=O)c1c(-c2ccc(F)cc2)nn2ccc(-c3cc(C(=O)NC4(c5ccccn5)CC4)ccc3C)c(F)c12 [drawing 130]
HCV replicon cells; Table 1
  EC50: 0.002 to 0.25 µM
[1]; Table 1
  IC50: 0.002 to 0.25 µM

## CNC(=O)c1c(-c2ccc(F)cc2)nn2ccc(-c3cc(C(=O)NC4(c5ccccc5)CC4)c(OC)cc3C)c(F)c12 [drawing 134]
HCV replicon cells; Table 1
  EC50: 0.002 to 0.25 µM
[1]; Table 1
  IC50: 0.002 to 0.25 µM

## CNC(=O)c1c(-c2ccc(F)cc2)nn2ccc(-c3cc(C(=O)NC4(c5ccccn5)CC4)c(OC)cc3C)c(F)c12 [drawing 135]
HCV replicon cells; Table 1
  EC50: 0.002 to 0.25 µM
[1]; Table 1
  IC50: 0.002 to 0.25 µM

## CNC(=O)c1c(-c2ccc(F)cc2)nc2ccc(C3CC3C(=O)NC3(c4ccccn4)CC3)cn12 (stereo not shown) [drawing 159]
HCV replicon cells; Table 1
  EC50: > 10 µM
[1]; Table 1
  IC50: > 10 µM

## CNC(=O)c1c(-c2ccc(F)cc2)nn2ccc(-c3cc(C(=O)NC4(c5ccccc5)CC4)ccc3C)cc12 [drawing 173]
HCV replicon cells; Table 2
  EC50: 0.00237 µM
[1]; Table 2
  IC50: 0.00475 µM

## CNC(=O)c1c(-c2ccc(F)cc2)nn2ccc(-c3cc(C(=O)NC4(c5ccccc5)CC4)c(OC)cc3C)c(F)c12 [drawing 174]
HCV replicon cells; Table 2
  EC50: 0.00392 µM
[1]; Table 2
  IC50: 0.01 µM

## CNC(=O)c1c(-c2ccc(F)cc2)nn2ccc(-c3cc(C(=O)NC4(c5ccccc5)CC4)cc(F)c3C)c(F)c12 [drawing 175]
HCV replicon cells; Table 2
  EC50: 0.00432 µM
[1]; Table 2
  IC50: 0.03 µM

## CCN(c1cn2nc(-c3ccc(F)cc3)c(C(=O)NC)c2cc1-c1cccc(C(=O)NC(C)(C)c2ccccc2)c1)S(C)(=O)=O [drawing 176]
HCV replicon cells; Table 2
  EC50: 0.00598 µM
[1]; Table 2
  IC50: 0.0096 µM

## CNC(=O)c1c(-c2ccc(F)cc2)nn2ccc(-c3cc(C(=O)NC4(c5ccccn5)CC4)ccc3C)c(F)c12 [drawing 177]
HCV replicon cells; Table 2
  EC50: 0.00715 µM
[1]; Table 2
  IC50: 0.005 µM
